Our source for the IC50 values is patent publication US11529321B2, “Use of aminomethylenecyclohexane-1,3-dione compound” (WIGEN BIOMEDICINE TECHNOLOGY (SHANGHAI) CO., LTD., priority 2017, dated 2022).

Structures are written as SMILES.

The target in the test is LC3B (Homo sapiens (Human), UniProt Q9GZQ8). The test can be described thus: Fluorescence polarization assay, GST-LC3B with FITC-labeled peptide.
Protocol: Then the resulting mixture was incubated at 25° C. in the dark.
Regarding `CNC(=O)NC=C1C(=O)CCCC1=O` [Compound 25], the IC50 is 100 to 1000 µM.
In the case of `O=C1CC(c2ccccc2)CC(=O)C1=CNc1ccccc1` (centres unmarked) [Compound 11, 5-Phenyl-2-((Phenylamino)Methylene)-Cyclohexane-1,3-Dione] it was 15 to 100 µM; in that of `O=c1c(=CNc2ccccc2)c(=O)c2cccc3cccc1c32` [Compound 61], 15 to 100 µM; in that of `CN(C)C=C1C(=O)CC(c2ccccc2)CC1=O` (centres unmarked) [Compound 1, 2-((Dimethylamino)Methylene)-5-Phenyl-Cyclohexane-1,3-Dione], 3 to 15 µM.
In the case of `Cc1ccc(S(=O)(=O)NNC=C2C(=O)CCCC2=O)cc1` [Compound 26], the concentration for half-maximal inhibition (IC50) was 100 to 1000 µM.
In the case of `Cc1n[nH]c(NC=C2C(=O)CC(C)(C)CC2=O)c1-c1ccccc1` [Compound 17] it was 100 to 1000 µM.
Turning to `CC1(C)CC(=O)C(=CNCCN2CCN(C(=O)Cc3ccc(F)cc3)CC2)C(=O)C1` [Compound 46], the IC50 is 100 to 1000 µM.
`CN(C)C=C1C(=O)CC2(CC2)CC1=O` [Compound 22] yielded an IC50 of 100 to 1000 µM.
